Test results: PubChem BioAssay AID2060622 (Molecular Pharmacology Branch, DTP, NCI, 2025)

Test system: 242566-281-R-J2-PDC complex spheroid viability
Assay: Anticancer human tumor 242566-281-R-J2-PDC patient-derived pancreatic carcinoma cell line growth inhibition [CLK]
Settings: for IC50: curve of first compound; for viability, T/C: stronger effect = lower value; active = viability on the fitted dose curve at most 10% of control; inactive = the rest
Procedure, shortened: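 Patient-derived tumor cells grown as complex spheroids with HUVEC endothelial cells and mesenchymal stem cells, treated with drug combinations. Concentrations descend in half-log steps from near clinical Cmax, or from 10 microM if Cmax unknown.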
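Also: spheroids exposed to compounds for 7 days before readout.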
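For viability, T/C in this document: 100% = DMSO vehicle control wells.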

CC(C)CC(NC(=O)C(Cc1ccccc1)NC(=O)c1cnccn1)B(O)O (centres undefined) + CNC(=O)c1ccc(Nc2nc(OC3CCCC3)c3c(-c4ccc5nc(C)oc5c4)c[nH]c3n2)c(OC)c1
1.19 nM: IC50 (second compound 3.16 µM)
2.77 nM: IC50 (second compound 0.316 µM)
4.24 nM: IC50 (second compound 0.0316 µM)
inactive: viability, T/C (second compound 0.0316 µM, first compound 0.000949 µM) 82.2% | viability, T/C (second compound 0.0316 µM, first compound 0.003 µM) 71.1% | viability, T/C (second compound 0.1 µM, first compound 0.000949 µM) 83.3% | viability, T/C (second compound 0.1 µM, first compound 0.003 µM) 62.8% | viability, T/C (second compound 0.316 µM, first compound 0.000949 µM) 83% | viability, T/C (second compound 0.316 µM, first compound 0.003 µM) 47.5% | viability, T/C (second compound 1 µM, first compound 0.000949 µM) 73.2% | viability, T/C (second compound 1 µM, first compound 0.003 µM) 19.7% | viability, T/C (second compound 3.16 µM, first compound 0.000949 µM) 60.6% | viability, T/C (second compound 10 µM, first compound 0.000949 µM) 59.4%
3.81 nM: IC50 (second compound 0.1 µM)
active: viability, T/C (second compound 0.0316 µM, first compound 0.00949 µM) 0.73% | viability, T/C (second compound 0.0316 µM, first compound 0.03 µM) 0.63% | viability, T/C (second compound 0.0316 µM, first compound 0.0949 µM) 0.4% | viability, T/C (second compound 0.0316 µM, first compound 0.3 µM) 0.56% | viability, T/C (second compound 0.1 µM, first compound 0.00949 µM) 0.92% | viability, T/C (second compound 0.1 µM, first compound 0.03 µM) 0.76% | viability, T/C (second compound 0.1 µM, first compound 0.0949 µM) 0.35% | viability, T/C (second compound 0.1 µM, first compound 0.3 µM) 0.57% | viability, T/C (second compound 0.316 µM, first compound 0.00949 µM) 0.7% | viability, T/C (second compound 0.316 µM, first compound 0.03 µM) 0.78% | viability, T/C (second compound 0.316 µM, first compound 0.0949 µM) 0.3% | viability, T/C (second compound 0.316 µM, first compound 0.3 µM) 0.78% | viability, T/C (second compound 1 µM, first compound 0.00949 µM) 0.52% | viability, T/C (second compound 1 µM, first compound 0.03 µM) 0.28% | viability, T/C (second compound 1 µM, first compound 0.0949 µM) 0.45% | viability, T/C (second compound 1 µM, first compound 0.3 µM) 0.4% | viability, T/C (second compound 3.16 µM, first compound 0.003 µM) 6.63% | viability, T/C (second compound 3.16 µM, first compound 0.00949 µM) 0.34% | viability, T/C (second compound 3.16 µM, first compound 0.03 µM) 0.29% | viability, T/C (second compound 3.16 µM, first compound 0.0949 µM) 0.35% | viability, T/C (second compound 3.16 µM, first compound 0.3 µM) 0.37% | viability, T/C (second compound 10 µM, first compound 0.003 µM) 3.83% | viability, T/C (second compound 10 µM, first compound 0.00949 µM) 0.57% | viability, T/C (second compound 10 µM, first compound 0.03 µM) 0.53% | viability, T/C (second compound 10 µM, first compound 0.0949 µM) 0.43% | viability, T/C (second compound 10 µM, first compound 0.3 µM) 0.42%
1.56 nM: IC50 (second compound 1 µM)
1.15 nM: IC50 (second compound 10 µM)

O=C(c1cc(Cc2n[nH]c(=O)c3ccccc23)ccc1F)N1CCN(C(=O)C2CC2)CC1 + CNC(=O)c1ccc(Nc2nc(OC3CCCC3)c3c(-c4ccc5nc(C)oc5c4)c[nH]c3n2)c(OC)c1
inactive: viability, T/C (second compound 0.0316 µM, first compound 0.0316 µM) 94.9% | viability, T/C (second compound 0.0316 µM, first compound 0.1 µM) 110% | viability, T/C (second compound 0.0316 µM, first compound 0.316 µM) 96.1% | viability, T/C (second compound 0.0316 µM, first compound 1 µM) 115% | viability, T/C (second compound 0.0316 µM, first compound 3.16 µM) 95.6% | viability, T/C (second compound 0.0316 µM, first compound 10 µM) 81.9% | viability, T/C (second compound 0.1 µM, first compound 0.0316 µM) 97.9% | viability, T/C (second compound 0.1 µM, first compound 0.1 µM) 98.4% | viability, T/C (second compound 0.1 µM, first compound 0.316 µM) 117% | viability, T/C (second compound 0.1 µM, first compound 1 µM) 98.4% | viability, T/C (second compound 0.1 µM, first compound 3.16 µM) 88.4% | viability, T/C (second compound 0.1 µM, first compound 10 µM) 70.3% | viability, T/C (second compound 0.316 µM, first compound 0.0316 µM) 92.6% | viability, T/C (second compound 0.316 µM, first compound 0.1 µM) 83.6% | viability, T/C (second compound 0.316 µM, first compound 0.316 µM) 87.6% | viability, T/C (second compound 0.316 µM, first compound 1 µM) 92.7% | viability, T/C (second compound 0.316 µM, first compound 3.16 µM) 92% | viability, T/C (second compound 0.316 µM, first compound 10 µM) 65% | viability, T/C (second compound 1 µM, first compound 0.0316 µM) 81.9% | viability, T/C (second compound 1 µM, first compound 0.1 µM) 57.1% | viability, T/C (second compound 1 µM, first compound 0.316 µM) 65.5% | viability, T/C (second compound 1 µM, first compound 1 µM) 69.8% | viability, T/C (second compound 1 µM, first compound 3.16 µM) 70.5% | viability, T/C (second compound 1 µM, first compound 10 µM) 55.3% | viability, T/C (second compound 3.16 µM, first compound 0.0316 µM) 63% | viability, T/C (second compound 3.16 µM, first compound 0.1 µM) 60% | viability, T/C (second compound 3.16 µM, first compound 0.316 µM) 58.6% | viability, T/C (second compound 3.16 µM, first compound 1 µM) 51.7% | viability, T/C (second compound 3.16 µM, first compound 3.16 µM) 52.2% | viability, T/C (second compound 3.16 µM, first compound 10 µM) 56.2% | viability, T/C (second compound 10 µM, first compound 0.0316 µM) 52.5% | viability, T/C (second compound 10 µM, first compound 0.1 µM) 52.2% | viability, T/C (second compound 10 µM, first compound 0.316 µM) 52.7% | viability, T/C (second compound 10 µM, first compound 1 µM) 52.5% | viability, T/C (second compound 10 µM, first compound 3.16 µM) 46% | viability, T/C (second compound 10 µM, first compound 10 µM) 57.6%
> 10000 nM: IC50 (second compound 0.0316 µM) | IC50 (second compound 0.1 µM) | IC50 (second compound 0.316 µM) | IC50 (second compound 1 µM) | IC50 (second compound 3.16 µM) | IC50 (second compound 10 µM)
